We go through seven molecules from patent US7176216B2, “7-phenylpyrazolopyridine compounds” (Eisai Co., Ltd., priority 2002, dated 2007).

Data set [1] concerns CRF-induced cAMP production in AtT-20 cells. Description: cAMP production inhibition experiment using AtT-20 cells. Type of data set: cell-based. Conditions: Mus musculus, AtT20, CRF 30 nM. As to the method:
<cAMP Production Inhibition Experiment Using AtT-20 Cells>
AtT-20 cell is a cell-line derived from mouse pituitary gland tumor, which is known to respond to corticotropin releasing hormone (CRF), to produce cAMP by activation of the intracellular adenylate cyclase system, and to release adrenocorticotropic hormone (ACTH) (Biochem. Biophys. Res. Com., 106, 1364–1371, 1982). In this experiment, AtT-20 cells (1×10^5) were suspended in D-MEM (0.1% FBS) and seeded in a 96-well plate, and then 1 mM (final concentration) phosphodiesterase inhibitor (IBMX, Calbiochem) was added prior to incubation for 30 minutes at 37° C. The diluted test compound solution was then added prior to incubation for 30 minutes at 37° C., and CRF (final concentration: 30 nM) was added prior to further incubation for 30 minutes at 37° C. The cells were collected by centrifugation (1,800 rpm (630×g), 5 minutes), and then lysed with lysis buffer (0.2% dodecyltrimethylammmonium bromide), and the intracellular cAMP production was assayed by HTRF method. cAMP kit HTRF (Nihon Schering) was used for the cAMP assay.
(2) Calculation of cAMP Production Inhibitory Activity;
The cAMP production of each sample was represented as a percentage (% of control), with the CRF (final concentration: 30 nM)-added cells defined as 100% (control).

In a further data set the test system is CYP3A4. Conditions: human, hepatocytes, 48 h. On the procedure:
Evaluation of Drug Metabolizing Enzyme (CYP3A4) Inducibility Using Cryopreserved Human Hepatocyte
Cryopreserved hepatocytes (In Vitro Technology) were rapidly thawed while stirring at 37° C., and then ice-cooled William's Medium E (10% FBS, +PSG) was slowly added to the cells prior to centrifugation at 500 rpm for 5 minutes. After removing the supernatant, the obtained hepatocytes were diluted with ice-cooled William's Medium E to a concentration of 5×10^5 cells/mL, seeded on a 48-well collagen coated plate (BD Biosciences) at 1×10^5 cells/cm^2 and incubated for about 24 hours at 37° C., 5% CO2, after which the medium was changed with Hepato-STIM™ (BD Biosciences) (+EGF, PSG, −FBS) and culture was maintained for another 24 hours under conditions of 37° C., 5% CO2. At approximately 48 hours after the cell seeding, the test compound or rifampicin (SIGMA, positive control) in the form of a diluted solution (using Hepato-STIM™ (+EGF, PSG, −FBS)) was added, hepatocyte were incubated for about 24 hours under conditions of 37° C., 5% CO2, and the culture medium was changed with medium containing a freshly prepared dilution of the test compound or rifampicin prior to further incubation for 24 hours under the same conditions. After incubation, the cells were washed once with PBS, and the total RNA was extracted using a Qiagen RNeasy Mini kit (Qiagen). The cDNA was synthesized by reverse-transcription of extracted using TaqMan Reverse Transcription Reagents (Applied Biosystems). The reverse transcription reaction was carried out using oligo dT as primer, with treatment at 25° C. for 10 minutes followed by treatment at 48° C. for 60 minutes, after which the reverse transcriptase was inactivated by treatment at 95° C. for 10 minutes. The obtained cDNA was supplied to a PCR using a Gene Amp PCR system 9700. The obtained cDNA was quantitated using an SYBR Green PCR Core Reagents kit (Applied Biosystems), and the human CYP3A4 and GAPDH mRNA was quantitated using an ABI7700 (Applied Biosystems). The abbreviations used in the test example are explained below. • FBS: Fetal Bovine Serum • PSG: Penicillin (100 U/ml), Streptomycin (100 μg/ml), Glutamine (2 mM) • EGF: Epidermal Growth Factor • GAPDH: Glyceraldehyde-3-Phosphate Dehydrogenase
(2) Calculation of CYP3A4 Inducibility:
Next, for comparison of each test run, the differences between the value of the CYP3A4 mRNA amount divided by the GAPDH mRNA amount with addition of the test compound at various concentrations and with addition of the negative control were calculated as percentages, with 100% being defined as the difference between the values of the CYP3A4 mRNA amount divided by the GAPDH mRNA amount for the positive control and negative control, to determine the inducibility of each test compound.

The target of the next data set is T1, human CRFR1 (Homo sapiens, UniProt P34998).
T1 construct: The full-length CRFR1 gene was obtained by PCR using human brain cDNA library; expressed in transfected cells
T1 sequence (P34998 24-415): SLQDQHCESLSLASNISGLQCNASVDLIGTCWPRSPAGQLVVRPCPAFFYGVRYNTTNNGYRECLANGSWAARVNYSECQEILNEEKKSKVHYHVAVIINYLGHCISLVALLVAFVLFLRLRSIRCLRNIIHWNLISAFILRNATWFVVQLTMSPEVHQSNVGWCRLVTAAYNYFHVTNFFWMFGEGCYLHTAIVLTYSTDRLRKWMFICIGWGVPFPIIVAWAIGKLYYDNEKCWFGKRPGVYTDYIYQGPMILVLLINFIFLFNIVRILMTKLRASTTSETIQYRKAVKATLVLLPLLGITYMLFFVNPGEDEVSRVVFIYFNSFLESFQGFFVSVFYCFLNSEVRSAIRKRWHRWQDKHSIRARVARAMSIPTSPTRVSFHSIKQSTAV
The data set is described as follows: CRFR binding experiment (125I-CRF, SPA, membrane fraction of CRFR1-expressing HEK293 cells). Conditions: 100 pM 125I-CRF, read-out: CRF1 receptor binding affinity IC50. As to the method: <CRFR Binding Experiment>
The full-length CRFR1 gene was obtained by PCR using human brain cDNA library (QuickClone™ Clontech). […] The CRFR1 expression vector was introduced into HEK293 cell, and the resistant cells which proliferated in culture medium containing G418 (1 mg/ml) were cloned by the limiting dilution method. […] And the selected cells were used for the experiments.

Structures are written as SMILES. Where two headings read alike, the source gives them in different places.

What is called IC50 is the concentration at which inhibition is half-maximal. `CCc1nn2c(-c3c(OC)cc(COC)cc3OC)cccc2c1N(CC1CCOCC1)CC1CC1` [Example 1, N-Cyclopropylmethyl-N-7-[2,6-dimethoxy-4-(methoxymethyl)phenyl]-2-ethylpyrazolo[1,5-a]pyridin-3-yl-N-tetrahydro-2H-4-pyranylmethylamine]: the IC50 in data set [1] came out at 4 nM. For the same molecule, the “% of Positive Control (CYP3A4 inducibility)” value (“% of Positive Control” below) is recorded as 6% in the data set with CYP3A4 (0.03 μM); 7% in the data set on CYP3A4 (0.1 μM); 12% in the data set on CYP3A4 (0.3 μM); 20% with CYP3A4 (1 μM); 36% with CYP3A4 (3 μM); 65% in the data set with CYP3A4 (10 μM). Moreover, in the data set on CYP3A4 (1 μM), the “inducibility (CYP3A4), positive control defined as 100%” value (“inducibility (CYP3A4) … as 100%” for short) is on record as no more than 40%.
Take `CCOCc1cc(OC)c(-c2cccc3c(N(CC4CCOCC4)CC4CC4)c(CC)nn23)c(OC)c1` [Example 3, N-Cyclopropylmethyl-N-7-[4-(ethoxymethyl)-2,6-dimethoxyphenyl]-2-ethylpyrazolo[1,5-a]pyridin-3-yl-N-tetrahydro-2H-4-pyranylmethylamine]: in data set [1], the IC50 was determined as 5.1 nM. Further, the “% of Positive Control” value in the data set with CYP3A4 (0.03 μM) amounted to 3%; in the data set with CYP3A4 (0.1 μM), 3%; with CYP3A4 (0.3 μM) it was 7%; in the data set on CYP3A4 (1 μM), 25%; in the data set with CYP3A4 (3 μM), 23%; with CYP3A4 (10 μM), 34%. Also, the “inducibility (CYP3A4) … as 100%” value in the data set on CYP3A4 (1 μM) was no more than 40%.
Regarding `CCCN(CC1CCOCC1)c1c(CC)nn2c(-c3c(OC)cc(COC)cc3OC)cccc12` [Example 13, N-7-[2,6-Dimethoxy-4-(methoxymethyl)phenyl]-2-ethylpyrazolo[1,5-a]pyridin-3-yl-N-propyl-N-tetrahydro-2H-4-pyranylmethylamine], in data set [1], the IC50 was 11 nM.
On to `CCCN(CC1CCOCC1)c1c(CC)nn2c(-c3c(OC)cc(COCC)cc3OC)cccc12` [Example 23, N-7-[4-(Ethoxymethyl)-2,6-dimethoxyphenyl]-2-ethylpyrazolo[1,5-a]pyridin-3-yl-N-propyl-N-tetrahydro-2H-4-pyranylmethylamine], for which the results for the IC50 (on human CRFR1; in data set [1]) were 50 nM and 6 nM, respectively.
Regarding `COCc1cc(OC)c(-c2cccc3c(N(CC4CCOCC4)CC4CC4)c(OC)nn23)c(OC)c1` [Example 47, N-Cyclopropylmethyl-N-7-[2,6-dimethoxy-4-(methoxymethyl)phenyl]-2-methoxypyrazolo[1,5-a]pyridin-3-yl-N-tetrahydro-2H-4-pyranylmethylamine], the IC50 in data set [1] was 50 nM.
Consider `COCc1cc(OC)c(-c2cccc3c(N(CC4CCOCC4)CC4CC4)c(SC)nn23)c(OC)c1` [Example 59, N-Cyclopropylmethyl-N-[7-[2,6-dimethoxy-4-(methoxymethyl)phenyl]-2-(methylsulfanyl)pyrazolo[1,5-a]pyridin-3-yl]-N-tetrahydro-2H-4-pyranylmethylamine], for which 3.5 nM corresponded to half-maximal inhibition in data set [1] (IC50). In addition, the “% of Positive Control” value is 2% with CYP3A4 (0.03 μM); 3% in the data set with CYP3A4 (0.1 μM); 11% in the data set with CYP3A4 (0.3 μM); 25% in the data set with CYP3A4 (1 μM); 49% in the data set with CYP3A4 (3 μM); 59% with CYP3A4 (10 μM). Also, in the data set with CYP3A4 (1 μM), the “inducibility (CYP3A4) … as 100%” value was no more than 40%.
Regarding `COCc1cc(OC)c(-c2cccc3c(N(CC4CC4)CC4CCOC4)c(SC)nn23)c(OC)c1` (stereo not drawn) [Example 60, N-Cyclopropylmethyl-N-[7-[2,6-dimethoxy-4-(methoxymethyl)phenyl]-2-(methylsulfanyl)pyrazolo[1,5-a]pyridin-3-yl]-N-tetrahydro-3-furanylmethylamine], the IC50 came to 30 nM on human CRFR1 and 3.5 nM in data set [1].
